# Source: patent US9783536B2, “Nitrogen-containing heterocyclic compound or salt thereof” (FUJIFILM Corporation, priority 2013, dated 2017)
# Like-named read-outs stand apart in the source and are kept apart here.
# Tests used:
# Format in all cases: biochemical
# [1] = biological target: T1, GST fusion human ERK2 protein (Homo sapiens, UniProt P28482); assay: ERK2 enzyme assay (2); settings: read-out: ERK2 enzyme inhibitory activity (2)
# T1 construct: purchased Carna Biosciences, Inc; host or cells: E. coli expression system
# T1 sequence (P28482 whole entry, the tested form may be a part): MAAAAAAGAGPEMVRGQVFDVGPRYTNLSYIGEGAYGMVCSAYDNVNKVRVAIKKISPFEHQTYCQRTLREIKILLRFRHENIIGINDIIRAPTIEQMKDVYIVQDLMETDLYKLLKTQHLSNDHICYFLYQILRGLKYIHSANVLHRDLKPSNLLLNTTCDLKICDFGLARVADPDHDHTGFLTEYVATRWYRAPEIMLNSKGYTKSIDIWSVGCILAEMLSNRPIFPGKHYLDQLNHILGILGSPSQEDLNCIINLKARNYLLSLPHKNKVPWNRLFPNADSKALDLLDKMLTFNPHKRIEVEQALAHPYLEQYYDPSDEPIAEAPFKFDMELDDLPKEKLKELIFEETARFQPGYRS
# Method in brief: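 GST-tagged human ERK2 expressed in E. coli (1.25 nmol/L) was preincubated with compound for 15 min at room temperature in pH 7.5 Hepes buffer with MgCl2, DTT and Brij35. Reaction with FL-Peptide 8 (final 4.25 μmol/L) and ATP (final 1 mmol/L) ran 120 min at 25 °C; EDTA stopped it, and phosphorylated peptide was quantified by mobility-shift separation to derive IC50.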
# [2] = biological target: T1, GST fusion human ERK2 protein; assay: ERK2 enzyme assay (1); settings: read-out: ERK2 enzyme inhibitory activity (1)
# Method in brief: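 Enzyme (2.5 nmol/L, E. coli-expressed) preincubated with compound 15 min at room temperature in HEPES/MgCl2/DTT/Brij35 buffer, pH 7.5; reaction with 4.25 μmol/L FL-Peptide 8 and 43.1 μmol/L ATP for 120 min at 25 °C. Phosphorylated peptide fraction quantified by mobility-shift separation after EDTA stop; IC50 calculated.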
# human PI3Kα protein = biological target: T2, human PI3Kα protein (Homo sapiens, UniProt P42336); assay: PI3Kα enzyme assay (ADP-Glo); settings: read-out: PI3Kα enzyme inhibitory activity
# T2 construct: purchased Carna Biosciences, Inc; host or cells: baculovirus expression system
# T2 sequence (P42336 whole entry): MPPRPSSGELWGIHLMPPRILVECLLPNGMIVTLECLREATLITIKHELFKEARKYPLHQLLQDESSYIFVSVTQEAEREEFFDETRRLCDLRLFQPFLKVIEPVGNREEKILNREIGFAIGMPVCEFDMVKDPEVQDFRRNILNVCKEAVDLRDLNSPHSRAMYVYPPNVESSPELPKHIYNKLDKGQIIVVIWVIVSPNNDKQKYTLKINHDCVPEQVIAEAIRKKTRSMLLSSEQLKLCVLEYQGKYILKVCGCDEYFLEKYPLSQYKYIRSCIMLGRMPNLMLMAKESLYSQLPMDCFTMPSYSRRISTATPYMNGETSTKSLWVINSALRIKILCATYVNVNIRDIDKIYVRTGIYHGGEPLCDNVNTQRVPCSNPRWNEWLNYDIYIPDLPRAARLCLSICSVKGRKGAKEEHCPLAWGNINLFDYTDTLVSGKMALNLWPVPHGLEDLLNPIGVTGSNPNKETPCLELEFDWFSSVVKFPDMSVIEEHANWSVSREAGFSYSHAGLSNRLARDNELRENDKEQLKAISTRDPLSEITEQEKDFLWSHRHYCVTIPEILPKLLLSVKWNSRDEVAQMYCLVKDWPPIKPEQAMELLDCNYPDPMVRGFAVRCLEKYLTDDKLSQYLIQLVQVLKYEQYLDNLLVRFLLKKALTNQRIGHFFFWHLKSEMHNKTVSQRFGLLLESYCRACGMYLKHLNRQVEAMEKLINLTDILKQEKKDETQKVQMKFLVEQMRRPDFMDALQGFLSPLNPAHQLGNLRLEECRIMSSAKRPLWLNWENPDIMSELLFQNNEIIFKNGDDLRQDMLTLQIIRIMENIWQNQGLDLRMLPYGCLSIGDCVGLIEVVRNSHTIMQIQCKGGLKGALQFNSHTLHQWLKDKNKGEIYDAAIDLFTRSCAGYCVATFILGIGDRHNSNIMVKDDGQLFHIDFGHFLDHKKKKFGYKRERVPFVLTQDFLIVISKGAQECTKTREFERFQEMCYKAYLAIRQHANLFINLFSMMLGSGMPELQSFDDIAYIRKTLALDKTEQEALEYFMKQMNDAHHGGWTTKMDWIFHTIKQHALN
# T2 sequence (P27986 whole entry partner): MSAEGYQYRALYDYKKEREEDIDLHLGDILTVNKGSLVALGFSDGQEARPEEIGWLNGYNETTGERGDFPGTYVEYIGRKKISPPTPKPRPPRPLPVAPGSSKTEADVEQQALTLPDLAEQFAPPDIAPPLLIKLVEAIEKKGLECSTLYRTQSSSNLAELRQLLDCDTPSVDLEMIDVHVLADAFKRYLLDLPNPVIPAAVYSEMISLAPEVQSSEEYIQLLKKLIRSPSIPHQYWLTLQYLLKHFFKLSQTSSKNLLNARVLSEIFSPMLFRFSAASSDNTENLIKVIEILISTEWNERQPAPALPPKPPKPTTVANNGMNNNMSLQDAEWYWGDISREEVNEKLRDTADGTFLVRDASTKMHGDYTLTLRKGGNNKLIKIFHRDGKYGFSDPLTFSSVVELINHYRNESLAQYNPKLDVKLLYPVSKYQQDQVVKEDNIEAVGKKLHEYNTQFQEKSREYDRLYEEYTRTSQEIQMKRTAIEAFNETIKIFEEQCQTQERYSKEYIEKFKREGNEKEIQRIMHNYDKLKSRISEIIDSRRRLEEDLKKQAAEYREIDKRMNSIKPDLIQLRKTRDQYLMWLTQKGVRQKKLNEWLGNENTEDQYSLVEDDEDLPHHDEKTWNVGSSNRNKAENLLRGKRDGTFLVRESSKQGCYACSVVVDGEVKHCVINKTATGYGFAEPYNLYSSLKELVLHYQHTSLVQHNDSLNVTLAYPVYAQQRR
# Method in brief: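 Biotinylated human PI3Kα (baculovirus-expressed, 4.5 nmol/L) pre-incubated 15 min with compound in Tris-HCl pH 7.5, MgCl2, BSA; reaction 60 min at 25° C with 50 μmol/L PIP2 and 100 μmol/L ATP final. ADP quantified by ADP-Glo luminescence; IC50 calculated.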
# [3] = 2.5 nmol/L ERK2, ATP 43.1 μmol/L
# [4] = 4.5 nmol/L PI3Kα, PIP2 50 μmol/L, ATP 100 μmol/L
SMILES,IC50 ([1]; ERK2 enzyme assay (2)),IC50 ([2]; ERK2 enzyme assay (1)),IC50 (human PI3Kα protein),"IC50 ([1]; 1.25 nmol/L ERK2, ATP 1 mmol/L)","IC50 [2, 3]",IC50 (human PI3Kα protein; [4])
c1nc2ccc(Nc3nnc(C4CCCC4)s3)nc2cc1-c1cnn(CCCN2CCCC2)c1 [Example 0320],< 1000 nM,< 1000 nM,< 1000 nM,–,–,–
"Cn1cc(-c2cnc3ccc(Nc4nnc(N5CCCC5)s4)nc3c2)cn1 [Example 0173, N-(7-(1-methyl-1H-pyrazol-4-yl)-1,5-naphthyridin-2-yl)-5-(pyrrolidin-1-yl)-1,3,4-thiadiazole-2-amine]",–,–,–,< 1000 nM,< 1000 nM,1000 to 10000 nM
CCC(C)c1cnnc(Nc2ccc3ncc(-c4cnn(CCCN5CCCC5)c4)cc3n2)c1 (stereo not drawn) [Example 0294],< 1000 nM,< 1000 nM,< 1000 nM,–,–,–
"OC(CN1CCCC1)Cn1cc(-c2cnc3ccc(Nc4nnc(C5CCCC5)s4)nc3c2)cn1 (stereo not drawn) [Example 0356, 1-(4-(6-((5-Cyclopentyl-1,3,4-thiadiazol-2-yl)amino)-1,5-naphthyridin-3-yl)-1H-pyrazol-1-yl)-3-(pyrrolidin-1-yl)propan-2-ol]",< 1000 nM,< 1000 nM,< 1000 nM,–,–,–
"C[Si](C)(C)CCOCn1cc(-c2cnc3ccc(Nc4nncs4)nc3c2)cn1 [Example 0025, N-(7-(1-((2-(trimethylsilyl)ethoxy)methyl)-1H-pyrazol-4-yl)-1,5-naphthyridin-2-yl)-1,3,4-thiadiazole-2-amine]",–,–,–,< 1000 nM,< 1000 nM,1000 to 10000 nM
c1nc2ccc(Nc3nnc(C4CCCC4)s3)nc2cc1-c1cnn(CCCN2CCC2)c1 [Example 0345],< 1000 nM,< 1000 nM,< 1000 nM,–,–,–
"CC(C)c1cnnc(Nc2ccc3ncc(-c4cnn(C5CCN(C)CC5)c4)cc3n2)c1 [Example 0370, N-(5-isopropylpyridazin-3-yl)-7-(1-(1-methylpiperidin-4-yl)-1H-pyrazol-4-yl)-1,5-naphthyridine-2-amine]",< 1000 nM,< 1000 nM,< 1000 nM,–,–,–
CC(C)Cc1nnc(Nc2ccc3ncc(-c4cnn(CCCN5CCCC5)c4)cc3n2)s1 [Example 0265],< 1000 nM,< 1000 nM,< 1000 nM,–,–,–
c1nc2ccc(Nc3nnc(C4CCC4)s3)nc2cc1-c1cnn(CCCN2CCCC2)c1 [Example 0235],< 1000 nM,< 1000 nM,< 1000 nM,–,–,–
CC(C)c1nnc(Nc2ccc3ncc(-c4cnn(CCCN5CCOCC5)c4)cc3n2)s1 [Example 0118],–,–,–,< 1000 nM,< 1000 nM,< 1000 nM
COC1CN(c2cnc3ccc(Nc4nnc(C5CCCC5)s4)nc3c2)C1 [Example 0092],–,–,–,< 1000 nM,< 1000 nM,1000 to 10000 nM
"Cn1cc(-c2cnc3ccc(Nc4nncs4)nc3c2)cn1 [Example 0026, N-(7-(1-methyl-1H-pyrazol-4-yl)-1,5-naphthyridin-2-yl)-1,3,4-thiadiazole-2-amine]",–,–,–,< 1000 nM,< 1000 nM,< 1000 nM
Cn1cc(-c2cnc3ccc(Nc4nnc(C5CCNC5)s4)nc3c2)cn1 (stereo not drawn) [Example 0251],< 1000 nM,< 1000 nM,1000 to 10000 nM,–,–,–
"c1nc2ccc(Nc3nnc(C4CCCC4)s3)nc2cc1N1CCOCC1 [Example 0311, 5-cyclopentyl-N-(7-morpholino-1,5-naphthyridin-2-yl)-1,3,4-thiadiazole-2-amine]",< 1000 nM,< 1000 nM,1000 to 10000 nM,–,–,–
c1nc(CN2CCOCC2)ncc1Nc1cnc2ccc(Nc3nnc(C4CCCC4)s3)nc2c1 [Example 0116],–,–,–,< 1000 nM,< 1000 nM,< 1000 nM
Cn1cc(-c2cnc3ccc(Nc4nnc(C5CCCC5)s4)nc3c2)c(C2CC2)n1 [Example 0132],–,–,–,< 1000 nM,< 1000 nM,< 1000 nM

SMILES,IC50 ([1]; ERK2 enzyme assay (2)),IC50 ([2]; ERK2 enzyme assay (1)),IC50 (human PI3Kα protein),"IC50 ([1]; 1.25 nmol/L ERK2, ATP 1 mmol/L)","IC50 [2, 3]",IC50 (human PI3Kα protein; [4])
"F[C@@H]1CCN(CCCn2cc(-c3cnc4ccc(Nc5nnc(C6CCCC6)s5)nc4c3)cn2)C1 [Example 0351, (R)-5-cyclopentyl-N-(7-(1-(3-(3-fluoropyrrolidin-1-yl)propyl)-1H-pyrazol-4-yl)-1,5-naphthyridin-2-yl)-1,3,4-thiadiazole-2-amine]",< 1000 nM,< 1000 nM,< 1000 nM,–,–,–
"CC(C)c1cnnc(Nc2ccc3ncc(-c4cnn(CCCN5CCN(C)CC5)c4)cc3n2)c1 [Example 0021, N-(5-isopropylpyridazin-3-yl)-7-(1-(3-(4-methylpiperazin-1-yl)propyl)-1H-pyrazol-4-yl)-1,5-naphthyridine-2-amine]",–,–,–,< 1000 nM,< 1000 nM,< 1000 nM
CCCc1nn(CCCN2CCCC2)cc1-c1cnc2ccc(Nc3nnc(C(C)C)s3)nc2c1 [Example 0147],–,–,–,< 1000 nM,< 1000 nM,< 1000 nM
COCc1nn(C)cc1-c1cnc2ccc(Nc3cc(C(C)C)cnn3)nc2c1 [Example 0160],–,–,–,< 1000 nM,< 1000 nM,< 1000 nM
COc1cncc(Nc2cnc3ccc(Nc4nnc(C5CCCC5)s4)nc3c2)c1 [Example 0072],–,–,–,< 1000 nM,< 1000 nM,< 1000 nM
"Cc1cnnc(Nc2ccc3ncc(Nc4cncc(OCCN5CCOCC5)c4)cc3n2)c1 [Example 0158, N^2-(5-methylpyridazin-3-yl)-N^7-(5-(2-morpholinoethoxyl)pyridin-3-yl)-1,5-naphthyridine-2,7-diamine]",–,–,–,1000 to 10000 nM,< 1000 nM,< 1000 nM
"Cn1cc(-c2cnc3ccc(Nc4nnc(C5CCCC5)s4)nc3c2Cl)cn1 [Example 0350, N-(8-chloro-7-(1-methyl-1H-pyrazol-4-yl)-1,5-naphthyridin-2-yl)-5-cyclopentyl-1,3,4-thiadiazole-2-amine]",< 1000 nM,< 1000 nM,1000 to 10000 nM,–,–,–
C1=C(c2cnc3ccc(Nc4nnc(C5CCCC5)s4)nc3c2)CCOC1 [Example 0327],< 1000 nM,< 1000 nM,1000 to 10000 nM,–,–,–
"CC(=O)N1CCC(c2nnc(Nc3ccc4ncc(-c5cnn(C)c5)cc4n3)s2)C1 (stereo not drawn) [Example 0253, 1-(3-(5-((7-(1-Methyl-1H-pyrazol-4-yl)-1,5-naphthyridin-2-yl)amino)-1,3,4-thiadiazol-2-yl)pyrrolidin-1-yl)ethanone]",< 1000 nM,< 1000 nM,1000 to 10000 nM,–,–,–
c1nc2ccc(Nc3nnc(C4CCCC4)s3)nc2cc1-c1cnn(CCCN2CCOCC2)c1 [Example 0117],–,–,–,< 1000 nM,< 1000 nM,< 1000 nM
CC(C)c1nnc(Nc2ccc3ncc(Nc4ccc(CN5CCOCC5)nc4)cc3n2)s1 [Example 0096],–,–,–,< 1000 nM,< 1000 nM,< 1000 nM
c1nc2ccc(Nc3nnc(CC4CCOC4)s3)nc2cc1-c1cnn(CCCN2CCCC2)c1 (stereo not drawn) [Example 0267],< 1000 nM,< 1000 nM,< 1000 nM,–,–,–
c1cc(Nc2cnc3ccc(Nc4nnc(C5CCCC5)s4)nc3c2)cnn1 [Example 0088],–,–,–,< 1000 nM,< 1000 nM,< 1000 nM
CC(C)(C)c1cnnc(Nc2ccc3ncc(-c4cnn(CCCN5CCCC5)c4)cc3n2)c1 [Example 0290],< 1000 nM,< 1000 nM,< 1000 nM,–,–,–
"c1nc2ccc(Nc3nnc(C4CCCC4)s3)nc2cc1-c1cnn(CCCN2CCNCC2)c1 [Example 0303, 5-cyclopentyl-N-(7-(1-(3-(piperazin-1-yl)propyl)-1H-pyrazol-4-yl)-1,5-naphthyridin-2-yl)-1,3,4-thiadiazole-2-amine]",< 1000 nM,< 1000 nM,< 1000 nM,–,–,–
